From patent publication US12215092B2, “Pleiotropic pathway modifier compounds and method of treating diseases” (PPM BIOPHARMA LLC, priority 2023, dated 2025)
“Also recorded” adds a separate entry of the source.

Tests used:
[1] = target: c-MYC (Homo sapiens, UniProt P01106); test: Automatic Western blot (Simple Western), targeted protein degradation: c-MYC; assay type: cell-based; details: for c-MYC in H929 cells (targeted protein degradation / expression): H929 human myeloma cells
Description: (§1) Targeted protein degradation in test samples were determined using the automated capillary-based nanoproteomic immunoassay Simple Western System (Protein Simple). Cultured cells were washed with cold PBS once and lysed in cold RIPA buffer supplemented with protease and phosphatase inhibitors. The solutions were then incubated at 4° C. for 30 minutes with gentle agitation to fully lyse cells. Each test sample was diluted at 0.4 mg/ml and mixed with 5× reducing buffer with fluorescent molecular weight (MW) standards. Afterwards the samples were heated to 95° C. for 5 minutes, and 5 μL samples were loaded into each capillary tube. Proteins were passed and separated through stacking and separation matrices for 30 minutes at 250 V. Proteins were then immobilized to capillary walls using optimal photoactivated capture chemistry. Following proteins immobilization, capillaries were flushed with a wash buffer and incubated with a blocking reagent for 6 min. Each target protein was probed with a specific primary antibody (diluted in blocking buffer and incubated for 38 min) and a horseradish peroxidase (HRP)-conjugated secondary antibody (ready to use solutions, incubated for 23 min). A mixture of luminol and peroxide was added following manufacturer's protocol. The resulting chemiluminescent signal was captured by a CCD camera, and signal intensities were analyzed using Compass Software (Protein Simple).
(§2) 1H929 or Jurkat cells were treated with DMSO, the positive control pomalidomide (an FDA-approved immunomodulatory agent) or the selected test compound (compound 4) at indicated concentrations (0.001-10 μM) for 24 hours. […] Ikaros and other proteins (Table 1),

[2] = target: Ikaros (Homo sapiens, UniProt Q13422); test: Automatic Western blot (Simple Western), targeted protein degradation: Ikaros; assay type: cell-based; details: 0.001-10 μM, 24 hours
Ikaros, sequence (Q13422 whole entry): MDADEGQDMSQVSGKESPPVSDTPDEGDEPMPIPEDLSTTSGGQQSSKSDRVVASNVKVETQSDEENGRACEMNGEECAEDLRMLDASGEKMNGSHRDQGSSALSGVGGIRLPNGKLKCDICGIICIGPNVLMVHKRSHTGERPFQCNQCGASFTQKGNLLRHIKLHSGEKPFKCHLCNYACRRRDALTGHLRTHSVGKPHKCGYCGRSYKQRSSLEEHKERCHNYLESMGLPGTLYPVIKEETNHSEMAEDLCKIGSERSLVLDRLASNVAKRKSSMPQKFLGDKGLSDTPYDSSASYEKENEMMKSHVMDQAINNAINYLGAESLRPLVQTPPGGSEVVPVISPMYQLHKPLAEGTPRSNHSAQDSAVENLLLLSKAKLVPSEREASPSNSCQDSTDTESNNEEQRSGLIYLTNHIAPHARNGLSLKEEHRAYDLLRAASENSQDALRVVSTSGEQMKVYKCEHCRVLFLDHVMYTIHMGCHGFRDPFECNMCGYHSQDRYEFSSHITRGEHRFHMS
Description: as §1, §2

[3] = target: CRBN (Homo sapiens, UniProt Q96SW2); test: Automatic Western blot (Simple Western), targeted protein degradation: CRBN; assay type: cell-based; details: 0.001-10 μM, 24 hours
CRBN, sequence (Q96SW2 whole entry): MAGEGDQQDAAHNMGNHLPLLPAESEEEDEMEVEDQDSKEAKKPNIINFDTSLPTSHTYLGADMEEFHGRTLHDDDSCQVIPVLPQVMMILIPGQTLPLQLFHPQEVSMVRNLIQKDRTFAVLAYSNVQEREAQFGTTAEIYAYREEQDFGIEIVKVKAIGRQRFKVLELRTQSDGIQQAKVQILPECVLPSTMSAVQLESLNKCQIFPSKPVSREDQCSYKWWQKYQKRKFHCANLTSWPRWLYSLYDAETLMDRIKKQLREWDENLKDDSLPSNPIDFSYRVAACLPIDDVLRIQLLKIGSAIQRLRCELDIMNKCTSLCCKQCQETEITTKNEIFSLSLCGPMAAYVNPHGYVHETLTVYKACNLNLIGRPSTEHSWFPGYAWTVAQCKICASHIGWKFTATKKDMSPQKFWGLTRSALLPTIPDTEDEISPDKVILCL
Description: (§3) Targeted protein degradation in test samples were determined using the automated capillary-based nanoproteomic immunoassay Simple Western System (Protein Simple). Cultured cells were washed with cold PBS once and lysed in cold RIPA buffer supplemented with protease and phosphatase inhibitors. The solutions were then incubated at 4° C. for 30 minutes with gentle agitation to fully lyse cells. Each test sample was diluted at 0.4 mg/ml and mixed with 5× reducing buffer with fluorescent molecular weight (MW) standards. Afterwards the samples were heated to 95° C. for 5 minutes, and 5 μL samples were loaded into each capillary tube. Proteins were passed and separated through stacking and separation matrices for 30 minutes at 250 V. Proteins were then immobilized to capillary walls using optimal photoactivated capture chemistry. Following proteins immobilization, capillaries were flushed with a wash buffer and incubated with a blocking reagent for 6 min. Each target protein was probed with a specific primary antibody (diluted in blocking buffer and incubated for 38 min) and a horseradish peroxidase (HRP)-conjugated secondary antibody (ready to use solutions, incubated for 23 min). […] The resulting chemiluminescent signal was captured by a CCD camera, and signal intensities were analyzed using Compass Software (Protein Simple). […]

[4] = target: HDAC2 (Homo sapiens, UniProt Q92769); test: Automatic Western blot (Simple Western), targeted protein degradation: HDAC2; assay type: cell-based; details: 0.001-10 μM, 24 hours
HDAC2, sequence (Q92769 whole entry): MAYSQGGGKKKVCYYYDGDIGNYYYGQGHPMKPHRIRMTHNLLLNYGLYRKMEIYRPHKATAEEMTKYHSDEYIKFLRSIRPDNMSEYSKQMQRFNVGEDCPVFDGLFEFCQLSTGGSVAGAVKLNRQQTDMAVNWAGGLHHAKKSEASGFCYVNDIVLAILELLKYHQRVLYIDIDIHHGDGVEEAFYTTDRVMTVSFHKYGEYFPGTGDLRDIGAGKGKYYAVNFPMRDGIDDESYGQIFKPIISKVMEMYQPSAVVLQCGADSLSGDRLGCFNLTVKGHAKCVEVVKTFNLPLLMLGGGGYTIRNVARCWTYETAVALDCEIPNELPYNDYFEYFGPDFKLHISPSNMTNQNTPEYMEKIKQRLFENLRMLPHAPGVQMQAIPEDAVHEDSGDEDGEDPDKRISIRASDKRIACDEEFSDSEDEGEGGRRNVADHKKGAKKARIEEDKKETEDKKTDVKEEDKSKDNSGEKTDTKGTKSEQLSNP
Description: as §1, §2

[5] = test system: GAPDH; test: Automatic Western blot (Simple Western): GAPDH (sample loading control); assay type: cell-based, human; details: 0.001-10 μM, 24 hours
Description: as §1, §2

[6] = target: Aiolos (Homo sapiens, UniProt Q9UKT9); test: Automatic Western blot (Simple Western), targeted protein degradation: Aiolos; assay type: cell-based; details: 0.001-10 μM, 24 hours
Aiolos, sequence (Q9UKT9 whole entry): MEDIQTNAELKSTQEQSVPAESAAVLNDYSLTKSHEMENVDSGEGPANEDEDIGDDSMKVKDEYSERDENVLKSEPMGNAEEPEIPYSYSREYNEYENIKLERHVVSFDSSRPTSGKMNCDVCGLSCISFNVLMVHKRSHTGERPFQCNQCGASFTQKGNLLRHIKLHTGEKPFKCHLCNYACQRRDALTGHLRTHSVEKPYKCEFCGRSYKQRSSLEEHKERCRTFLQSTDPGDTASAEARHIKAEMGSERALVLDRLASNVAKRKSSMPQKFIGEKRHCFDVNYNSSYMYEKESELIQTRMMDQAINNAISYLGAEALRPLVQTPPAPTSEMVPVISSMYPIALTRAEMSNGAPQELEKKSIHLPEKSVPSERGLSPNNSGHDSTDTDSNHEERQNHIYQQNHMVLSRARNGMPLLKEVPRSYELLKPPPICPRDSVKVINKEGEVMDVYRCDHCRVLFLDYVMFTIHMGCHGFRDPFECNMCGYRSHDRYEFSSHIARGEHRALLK
Description: as §3

[7] = target: Eos (Homo sapiens, UniProt Q9H2S9); test: Automatic Western blot (Simple Western), targeted protein degradation: Eos; assay type: cell-based; details: 0.001-10 μM, 24 hours
Eos, sequence (Q9H2S9 whole entry): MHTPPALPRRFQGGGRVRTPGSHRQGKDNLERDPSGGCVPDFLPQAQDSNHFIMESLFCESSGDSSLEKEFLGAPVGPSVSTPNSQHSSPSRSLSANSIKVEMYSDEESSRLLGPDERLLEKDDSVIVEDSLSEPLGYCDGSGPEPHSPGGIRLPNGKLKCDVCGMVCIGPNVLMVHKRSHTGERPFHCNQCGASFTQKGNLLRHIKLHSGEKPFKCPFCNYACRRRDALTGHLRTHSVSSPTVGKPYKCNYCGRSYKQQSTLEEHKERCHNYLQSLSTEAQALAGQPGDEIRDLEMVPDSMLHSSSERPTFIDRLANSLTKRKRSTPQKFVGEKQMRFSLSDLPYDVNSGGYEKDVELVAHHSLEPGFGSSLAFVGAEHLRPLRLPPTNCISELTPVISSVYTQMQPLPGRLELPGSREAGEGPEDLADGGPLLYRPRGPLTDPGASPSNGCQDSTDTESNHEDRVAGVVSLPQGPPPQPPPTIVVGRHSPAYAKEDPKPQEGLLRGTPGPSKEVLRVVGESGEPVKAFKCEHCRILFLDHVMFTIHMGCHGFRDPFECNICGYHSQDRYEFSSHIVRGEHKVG
Description: as §3

[8] = test system: target protein; test: Targeted protein degradation in H929 and Jurkat cells (overall statement); assay type: cell-based; details: H929 human multiple myeloma cells and Jurkat human leukemia cells, concentration dependent
Description: as §3

[9] = test system: human solid tissue cancer cells; test: Cancer cell proliferation assay (CellTiter-Glo), solid tumors; assay type: cell-based; details: 3 days, concentration-dependent (FIG. 1)
Description: (§4) The cell proliferation of cancer cells was assessed using the CellTiter-Glo Luminescent Cell Viability Assay (Promega), per the manufacturer's protocol.
(§5) Briefly, in 96-well flat-bottom white-walled multiwell cell culture plates the control wells containing 100 μL/well medium without cells were used to obtain a value for background luminescence. For treatment wells, cells were seeded at 5,000 in 50 μL/well of complete RPMI-1640 medium and then mixed with 50 μL/well of the vehicle control (0.1% DMSO) or test compounds at indicated concentrations. Following cell incubation for 3 days at 37° C. in a humidified 5% CO2 incubator, the plates were equilibrated at room temperature for approximately 30 minutes. 100 μL of CellTiter-Glo® Reagent were added into each well and then contents were mixed for 2 minutes on an orbital plate shaker to induce cell lysis. After the plates were incubated at room temperature for 10 minutes, luminescent signals of each well were recorded with a Tecan M200 Plate Reader (Tecan Trading AG, Switzerland).
(§6) The following human cancer cells originated from various tissues were used to test the antiproliferative activity of PPM compounds (Table 2). […] The EC50 values for each test compounds were calculated using GraphPad Prizm. […]

[10] = test system: human hematopoietic cancer cells; test: Cancer cell proliferation assay (CellTiter-Glo), blood cancer cells; assay type: cell-based; details: 3 days, concentration-dependent (FIG. 2)
Description: as §4, §5, §6

[11] = test system: Poly (I:C) induced PBMC; test: Luminex-based multiplex cytokine assay, Poly (I:C) induced PBMC; assay type: cell-based, human; details: concentration-dependent (FIG. 5)
[12] = test system: LPS induced PBMC; test: Luminex-based multiplex cytokine assay, LPS induced PBMC; assay type: cell-based, human; details: concentration-dependent (FIG. 6)
[13] = test system: SEB induced PBMC; test: Luminex-based multiplex cytokine assay, SEB induced PBMC; assay type: cell-based, human; details: concentration-dependent (FIG. 7)
[14] = test system: HDAC; test: In situ HDAC activity fluorometric assay in cancer cells; assay type: cell-based, human; details: 24 h treatment, concentration dependent (FIG. 8)
Description: In Situ HDAC Activity Fluorometric Kit was purchased from Abcam and performed according to the manufacturer instructions. The cells (20,000) were seeded in a black walled 96-well plate and let to adhere overnight, then treated with DMSO or PPM compounds at indicated concentrations for 24 hrs. The media was then replaced with an HDAC substrate (acetylated peptide) dissolved in media and cells incubated for 3 hrs under cell culture conditions, followed by addition of the developer for 30 min to stop the reaction. The fluorescence was measured at Ex/Em=368/442 nm.

c-MYC, sequence (P01106 whole entry): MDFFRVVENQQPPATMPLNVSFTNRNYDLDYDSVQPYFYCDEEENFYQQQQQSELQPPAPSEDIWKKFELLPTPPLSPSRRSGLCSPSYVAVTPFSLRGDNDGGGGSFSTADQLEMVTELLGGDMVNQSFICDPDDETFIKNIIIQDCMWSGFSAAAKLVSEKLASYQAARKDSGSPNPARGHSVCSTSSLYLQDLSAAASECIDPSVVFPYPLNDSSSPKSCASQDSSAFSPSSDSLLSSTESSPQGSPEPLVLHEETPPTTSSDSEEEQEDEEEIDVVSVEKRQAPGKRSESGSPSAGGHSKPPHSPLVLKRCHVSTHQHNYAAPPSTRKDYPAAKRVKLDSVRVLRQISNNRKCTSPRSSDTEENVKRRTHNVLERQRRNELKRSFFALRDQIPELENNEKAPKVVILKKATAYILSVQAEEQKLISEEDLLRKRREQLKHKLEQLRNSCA

O=C(CCCCc1ccc(C(=O)NCc2ccc3c(c2)CN(C2CCC(=O)NC2=O)C3=O)cc1)NO (stereo not drawn) [Compound 4, N-((2-(2,6-dioxopiperidin-3-yl)-1-oxoisoindolin-5-yl)methyl)-4-(5-(hydroxyamino)-5-oxopentyl)benzamide]
Compound-induced c-MYC degradation after pretreatment with the proteosome inhibitor bortezomib ([1]; H929 cells, bortezomib pretreatment): prevented
c-MYC in H929 cells (targeted protein degradation / expression) ([1]; 0.001-10 μM, 24 hours): reduced c-MYC and HDAC expression
c-MYC in H929 cells (targeted protein degradation / expression) ([1]; 0.001-10 μM, 24 hours, listed as compound 4): degraded
levels of c-MYC ([1]; H929 or Jurkat cells, 0.001-10 μM, 24 hours): clearly reduced
c-MYC in Jurkat cells (targeted protein degradation) ([1]; Jurkat cells, 0.001-10 μM, 24 hours): degraded
Ikaros in H929 cells (targeted protein degradation) ([2]; H929 cells): degraded
levels of Ikaros ([2]; H929 or Jurkat cells): clearly reduced
Ikaros in Jurkat cells (targeted protein degradation / expression) [2]: reduced Ikaros expression
Ikaros in Jurkat cells (targeted protein degradation / expression) ([2]; listed as compound 4): degraded
CRBN in H929 cells (targeted protein degradation) ([3]; H929 cells): degraded
CRBN in Jurkat cells (targeted protein degradation) ([3]; Jurkat cells): degraded
HDAC2 in H929 cells (targeted protein degradation / expression) [4]: reduced c-MYC and HDAC expression; also recorded: reduced HDAC2 expression
HDAC2 in H929 cells (targeted protein degradation / expression) ([4]; listed as compound 4): degraded
levels of HDAC2 ([4]; H929 or Jurkat cells): clearly reduced
HDAC2 in Jurkat cells (targeted protein degradation) ([4]; Jurkat cells): degraded
GAPDH in H929 cells (expression, loading control) [5]: no effect
GAPDH in H929 cells (expression, loading control) ([5]; listed as compound 4): No effect
GAPDH in Jurkat cells (expression, loading control) ([5]; Jurkat cells): No effect
Aiolos in Jurkat cells (targeted protein degradation) [6]: degraded
Eos in Jurkat cells (targeted protein degradation) [7]: degraded
target protein degradation [8]: caused target protein degradation
proliferation of human solid tissue cancer cells [9]: selectively suppressed the proliferation
proliferation of human hematopoietic cancer cells [10]: selectively suppressed the proliferation
cytokine production from Poly (I:C) induced PBMC [11]: suppressed cytokine production
cytokine production from LPS induced PBMC [12]: suppressed cytokine production
cytokine production from SEB induced PBMC [13]: enhanced cytokine production
intracellular HDAC activity in human cancer cells [14]: inhibit intracellular HDAC activity; also recorded: suppressed intracellular HDAC activity
